Experiments:
Penicillium decumbens = test: Inhibition of Penicillium decumbens alpha-L-rhamnosidase at 1000 uM
[1] = biological target: Alpha-galactosidase (Coffea arabica) (UniProt Q42656); test: Inhibition of coffee bean alpha-galactosidase at 1000 uM
Helix pomatia = test: Inhibition of snail beta-mannosidase at 1000 uM
[2] = biological target: T1, Tissue alpha-L-fucosidase (Bos taurus) (UniProt Q2KIM0); test: Inhibition of bovine kidney alpha-L-fucosidase at 1000 uM
T1 sequence (whole entry): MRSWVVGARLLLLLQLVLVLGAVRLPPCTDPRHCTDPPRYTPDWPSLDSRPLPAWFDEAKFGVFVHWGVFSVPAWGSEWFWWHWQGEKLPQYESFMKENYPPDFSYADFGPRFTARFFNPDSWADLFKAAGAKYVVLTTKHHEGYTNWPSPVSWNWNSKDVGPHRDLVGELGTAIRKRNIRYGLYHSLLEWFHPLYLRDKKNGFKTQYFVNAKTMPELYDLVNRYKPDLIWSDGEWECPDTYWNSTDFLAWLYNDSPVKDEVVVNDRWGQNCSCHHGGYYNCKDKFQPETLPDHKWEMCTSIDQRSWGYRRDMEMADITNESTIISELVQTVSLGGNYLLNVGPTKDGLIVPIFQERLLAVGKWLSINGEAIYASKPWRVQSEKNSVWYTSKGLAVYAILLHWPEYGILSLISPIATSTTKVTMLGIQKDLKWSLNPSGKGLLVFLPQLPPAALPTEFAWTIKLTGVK

Beta-galactosidase = biological target: T2, Beta-galactosidase (Bos taurus, UniProt Q58D55); test: Inhibition of bovine liver beta-galactosidase
T2 sequence (Q58D55 whole entry): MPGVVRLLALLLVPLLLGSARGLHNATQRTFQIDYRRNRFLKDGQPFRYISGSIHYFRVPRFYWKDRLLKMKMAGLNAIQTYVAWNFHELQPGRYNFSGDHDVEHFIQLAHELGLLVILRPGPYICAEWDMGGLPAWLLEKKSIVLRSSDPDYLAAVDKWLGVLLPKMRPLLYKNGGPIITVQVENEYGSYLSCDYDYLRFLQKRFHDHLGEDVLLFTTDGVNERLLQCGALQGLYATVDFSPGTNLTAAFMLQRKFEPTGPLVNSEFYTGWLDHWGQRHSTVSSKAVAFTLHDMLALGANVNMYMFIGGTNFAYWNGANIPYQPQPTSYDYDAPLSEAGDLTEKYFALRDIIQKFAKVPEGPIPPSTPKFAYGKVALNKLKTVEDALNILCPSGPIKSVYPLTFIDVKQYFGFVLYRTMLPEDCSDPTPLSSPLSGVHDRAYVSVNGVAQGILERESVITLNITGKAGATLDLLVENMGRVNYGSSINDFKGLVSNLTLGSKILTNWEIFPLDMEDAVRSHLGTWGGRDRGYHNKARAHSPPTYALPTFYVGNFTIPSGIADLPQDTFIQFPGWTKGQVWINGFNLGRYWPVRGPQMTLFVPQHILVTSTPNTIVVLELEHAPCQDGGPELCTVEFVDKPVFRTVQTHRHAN

Aspergillus niger [3] = test: Inhibition of Aspergillus niger amyloglucosidase at 1000 uM
[4] = biological target: Oligo-1,6-glucosidase IMA1 (Saccharomyces cerevisiae S288c) (UniProt P53051); test: Inhibition of yeast alpha-glucosidase at 1000 uM
Aspergillus niger [5] = test: Inhibition of Aspergillus niger beta-glucosidase at 1000 uM
Prunus dulcis = test: Inhibition of almond beta-glucosidase at 1000 uM
Canavalia ensiformis = test: Inhibition of jack beans alpha-mannosidase at 1000 uM
Rattus norvegicus = species: Rattus norvegicus; test: Inhibition of rat intestinal maltase alpha-glucosidase at 1000 uM
[6] = biological target: T3, Uncharacterized protein (Sus scrofa) (UniProt I3LIR5); test: Inhibition of pig kidney alpha, alpha trehalase at 1000 uM
T3 sequence (whole entry): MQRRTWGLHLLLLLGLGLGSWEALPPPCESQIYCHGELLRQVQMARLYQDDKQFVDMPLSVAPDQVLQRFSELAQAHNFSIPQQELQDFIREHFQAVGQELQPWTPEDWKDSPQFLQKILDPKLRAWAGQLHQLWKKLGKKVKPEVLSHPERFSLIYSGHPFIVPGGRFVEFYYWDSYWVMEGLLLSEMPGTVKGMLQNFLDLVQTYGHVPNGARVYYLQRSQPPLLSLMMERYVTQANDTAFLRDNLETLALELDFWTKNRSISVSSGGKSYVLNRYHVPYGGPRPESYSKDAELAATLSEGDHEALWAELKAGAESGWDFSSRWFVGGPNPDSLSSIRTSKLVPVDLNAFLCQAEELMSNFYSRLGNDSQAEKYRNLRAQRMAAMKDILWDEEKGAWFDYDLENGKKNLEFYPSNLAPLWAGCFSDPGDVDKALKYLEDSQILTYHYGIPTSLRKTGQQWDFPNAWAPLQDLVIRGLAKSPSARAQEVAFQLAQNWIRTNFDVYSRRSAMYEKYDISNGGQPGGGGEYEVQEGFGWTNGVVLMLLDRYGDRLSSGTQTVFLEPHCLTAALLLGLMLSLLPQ

[7] = Inhibition of rice alpha-glucosidase; design: species or system Oryza sativa
[8] = biological target: T4, Glucosylceramidase (Bos taurus) (UniProt Q2KHZ8); test: Inhibition of bovine liver beta-glucosidase at 1000 uM
T4 sequence (whole entry): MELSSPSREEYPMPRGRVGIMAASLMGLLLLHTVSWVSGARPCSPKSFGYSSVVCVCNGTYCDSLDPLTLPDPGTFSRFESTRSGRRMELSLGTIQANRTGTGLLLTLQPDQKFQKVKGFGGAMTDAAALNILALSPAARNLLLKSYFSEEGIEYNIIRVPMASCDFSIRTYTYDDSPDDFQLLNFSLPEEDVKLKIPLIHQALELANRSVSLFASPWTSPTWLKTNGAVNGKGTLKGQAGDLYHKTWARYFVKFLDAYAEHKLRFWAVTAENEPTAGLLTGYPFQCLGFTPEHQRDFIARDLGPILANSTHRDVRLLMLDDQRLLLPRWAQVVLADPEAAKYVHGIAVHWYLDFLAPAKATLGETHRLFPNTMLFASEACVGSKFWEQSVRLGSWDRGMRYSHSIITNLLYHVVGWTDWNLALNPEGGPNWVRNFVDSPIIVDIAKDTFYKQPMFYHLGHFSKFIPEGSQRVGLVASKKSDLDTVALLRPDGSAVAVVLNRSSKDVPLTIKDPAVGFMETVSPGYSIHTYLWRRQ

[9] = biological target: T5, Tissue alpha-L-fucosidase (Bos taurus, UniProt Q2KIM0); test: Inhibition of bovine kidney alpha-L-fucosidase
T5 sequence (Q2KIM0 whole entry): T1 sequence (whole entry)

Oligo-1,6-glucosidase IMA1 (Saccharomyces cerevisiae S288c), sequence (P53051 whole entry): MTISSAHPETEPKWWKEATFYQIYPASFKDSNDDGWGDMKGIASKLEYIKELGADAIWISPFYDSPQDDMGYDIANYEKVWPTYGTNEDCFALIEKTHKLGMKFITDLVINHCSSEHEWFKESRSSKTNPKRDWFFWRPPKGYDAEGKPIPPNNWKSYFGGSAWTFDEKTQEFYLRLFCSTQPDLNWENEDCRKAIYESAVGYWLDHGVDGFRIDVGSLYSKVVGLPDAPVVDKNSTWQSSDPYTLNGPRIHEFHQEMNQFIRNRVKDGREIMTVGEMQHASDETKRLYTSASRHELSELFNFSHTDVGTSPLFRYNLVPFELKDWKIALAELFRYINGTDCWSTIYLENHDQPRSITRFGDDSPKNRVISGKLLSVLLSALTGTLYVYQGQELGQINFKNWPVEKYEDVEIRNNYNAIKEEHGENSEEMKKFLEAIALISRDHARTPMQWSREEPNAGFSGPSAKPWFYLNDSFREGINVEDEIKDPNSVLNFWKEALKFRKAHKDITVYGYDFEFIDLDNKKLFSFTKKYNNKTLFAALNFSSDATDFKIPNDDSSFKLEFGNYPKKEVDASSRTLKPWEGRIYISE
Alpha-galactosidase (Coffea arabica), sequence (Q42656 16-378 limits assumed): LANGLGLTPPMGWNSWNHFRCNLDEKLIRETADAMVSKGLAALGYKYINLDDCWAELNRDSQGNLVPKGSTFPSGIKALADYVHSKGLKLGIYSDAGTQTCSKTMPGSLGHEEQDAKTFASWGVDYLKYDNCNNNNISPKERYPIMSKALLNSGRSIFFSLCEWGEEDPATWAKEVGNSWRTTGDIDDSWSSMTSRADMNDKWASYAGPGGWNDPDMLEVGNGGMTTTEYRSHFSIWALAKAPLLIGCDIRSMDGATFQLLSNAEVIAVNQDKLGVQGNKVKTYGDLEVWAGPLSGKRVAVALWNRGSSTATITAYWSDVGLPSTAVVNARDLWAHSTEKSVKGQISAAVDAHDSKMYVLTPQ

Structure (SMILES) | inhibition (Penicillium decumbens) [%] | inhibition [1] [%] | inhibition (Helix pomatia) [%] | inhibition [2] [%] | IC50 (Beta-galactosidase) [µM] | inhibition (Aspergillus niger [3]) [%] | inhibition [4] [%] | inhibition (Aspergillus niger [5]) [%] | inhibition (Prunus dulcis) [%] | inhibition (Canavalia ensiformis) [%] | inhibition (Rattus norvegicus) [%] | inhibition [6] [%] | IC50 [7] [µM] | inhibition [8] [%] | Ki [9] [µM]
CCC[C@@H]1NC[C@@H](O)[C@@H](O)[C@H](O)[C@H]1O | 14.8 | 46 | 3.6 | 0 | 541 | 0 | 0 | 9.1 | 0 | 1.6 | 0 | 0 | 839 | 6 | 
O[C@H]1[C@H](O)[C@@H](O)CNC[C@H]1O |  |  |  |  |  |  |  |  |  |  |  |  |  |  | 4.6

From ChEMBL document CHEMBL2406948, “Skeletal rearrangement of seven-membered iminosugars: synthesis of (-)-adenophorine, (-)-1-epi-adenophorine and derivatives and evaluation as glycosidase inhibitors” (Bioorg Med Chem, 2013)
